According to paper PMC5547389, “Structure-activity relationships and molecular docking studies of chromene and chromene based azo chromophores: A novel series of potent antimicrobial and anticancer agents” (EXCLI Journal, 2017):
Values after ≈ are worked out from the molar mass of the structure shown. Read-outs that look alike come from different tables or passages of the source.

How the values were obtained:
HCT-116, MCF-7, HEPG-2 = test: Cytotoxic screening, statements over the three cell lines; assay type: cell-based; settings: Homo sapiens, read-out: IC50, range over the three cell lines
Experimental: (§1) Human colon carcinoma (HCT-116), human hepatocellular carcinoma (HEPG-2), adenocarcinomic human alveolar basal epithelial cell (A-549), and human breast adenocarcinoma (MCF-7) cell lines were obtained from the American Type Culture Collection (ATCC, Rockville, MD). The cells were grown on RPMI-1640 medium supplemented with 10 % inactivated fetal calf serum and 50 µg/ml gentamycin. The cells were maintained at 37 °C in a humidified atmosphere with 5 % CO2 and were subcultured two to three times a week. Potential cytotoxicity of the compounds was evaluated on tumor cells using the method of Gangadevi and Muthumary (2007[21]) (Klancnik et al., 2010[36]). The cells were grown as monolayers in growth RPMI-1640. The monolayers of 104 cells adhered at the bottom of the wells in a 96-well microtiter plate incubated for 24 h at 37 °C in a humidified incubator with 5 % CO2. The monolayers were then washed with sterile phosphate buffered saline (0.01 M pH 7.2) and simultaneously the cells were treated with 100 µL from different dilutions of tested sample in fresh maintenance medium and incubated at 37 °C. A control of untreated cells was made in the absence of tested sample. Positive controls containing doxorubicin were also tested as a reference drug for comparison. Six wells were used for each concentration of the test sample. Every 24 hours an observation under the inverted microscope was made. The number of the surviving cells was determined by staining the cells with crystal violet (Mosmann, 1983[42]; Gangadevi and Muthumary, 2007[21]) followed by cell lysing using 33 % glacial acetic acid and reading the absorbance at 590 nm using microplate reader (SunRise, TECAN, Inc, USA) after well mixing. The absorbance values from untreated cells were considered as 100 % proliferation. The number of viable cells was determined using microplate reader as previously mentioned before and the percentage of […] was calculated as [1-(ODt/ODc)] x 100 % where ODt is the mean optical density of wells treated with the tested sample and ODc is the mean optical density of untreated cells. The relation between surviving cells and drug concentration was plotted to get the survival curve of each tumor cell line after treatment with the specified compound. The 50 % inhibitory concentration (IC50), the concentration required to cause toxic effects in 50 % of intact cells, was estimated from graphic plots.
(§2) The in vitro cytotoxic activity was performed by MTT assay (Mosmann, 1983[42]; Alley et al., 1988[6]) against three human carcinoma cell lines: Human colon carcinoma (HCT-116), human breast adenocarcinoma (MCF-7), and human hepatocellular carcinoma (HEPG-2).

[1] = system: human breast adenocarcinoma (MCF-7); test: Cytotoxic screening; assay type: cell-based
Experimental: as §1, §2

[2] = system: Human colon carcinoma (HCT-116); test: Cytotoxic screening; assay type: cell-based
Experimental: as §1, §2

[3] = system: human hepatocellular carcinoma (HEPG-2); test: Cytotoxic screening; assay type: cell-based; settings: HepG2, read-out: IC50 HepG-2
Experimental: as §1, §2

[4] = system: Syncephalastrum racemosum (RCMB 05922); test: Well diffusion assay (inhibition zone); assay type: cell-based
Experimental: (§3) The microorganism inoculums were uniformly spread using sterile cotton swabs on a sterile Petri dish malt extract agar (for fungi) and nutrient agar (for bacteria). One hundred cubic millimeters of each sample was added to each well (10 mm-diameter holes were cut in the agar gel, 20 mm apart from one another). The systems were incubated for 24-48 h at 37 °C (for bacteria) and at 28 °C (for fungi). After incubation, the microorganism growth was observed. Inhibition zones of the bacterial and fungal growth were measured in millimeters. Tests were performed in triplicate (Cappuccino and Sherman, 1999[12]; Vanden Berghe and Vlientinck, 1991[62]).
(§4) All the newly synthesized compounds described in this report were screened for both antibacterial and antifungal activity via the reported agar diffusion well method (Vanden Berghe and Vlietinck, 1991[62]). The inhibition zones and minimum inhibitory concentrations (MIC) were determined by the serial dilution method (Cappuccino and Sherman, 1999[12]). The antimicrobial activity of the synthesized compounds was tested against a broad panel of microorganisms including two Gram-positive bacteria: Streptococcus pneumoniae (RCMB 010010) and Bacillus subtilis (RCMB 010067), two Gram-negative bacteria: Pseudomonas aeruginosa (RCMB 010043) and Escherichia coli (RCMB 010052), and four fungi: Aspergillus fumigatus (RCMB 02568), Syncephalastrum racemosum (RCMB 05922), Geotricum candidum (RCMB 05097), and Candida albicans (RCMB 05036). Ampicillin, ciprofloxacin, gentamicin and amphotericin B were used as positive control drugs (Atta-ur-Rahman and Thomsen, 2001[7]; Smania et al., 1999[57]). […] While in the case of Gm-ve bacteria, they had weak activity. In addition, certain strains of fungi were sensitive to tested compounds with an IZ range from 12-25 except Candida albicans.

[5] = system: Aspergillus fumigatus (RCMB 02568); test: Well diffusion assay (inhibition zone); assay type: cell-based
Experimental: as §3, §4

[6] = system: Geotricum candidum (RCMB 05097); test: Well diffusion assay (inhibition zone); assay type: cell-based; settings: read-out: Inhibition Zone (IZ) diameter, G.C
Experimental: as §3, §4

[7] = system: Bacillus subtilis (RCMB 010067); test: Well diffusion assay (inhibition zone); assay type: cell-based
Experimental: as §3, §4

[8] = system: Streptococcus pneumoniae (RCMB 010010); test: Well diffusion assay (inhibition zone); assay type: cell-based
Experimental: as §3, §4

[9] = system: Escherichia coli (RCMB 010052); test: Well diffusion assay (inhibition zone); assay type: cell-based
Experimental: as §3, §4

[10] = system: Syncephalastrum racemosum (RCMB 05922); test: MIC by serial dilution method; assay type: cell-based
Experimental: as §4

[11] = system: Aspergillus fumigatus (RCMB 02568); test: MIC by serial dilution method; assay type: cell-based
Experimental: as §4

[12] = system: Geotricum candidum (RCMB 05097); test: MIC by serial dilution method; assay type: cell-based; settings: read-out: Minimum inhibitory concentration, MIC, G.C
Experimental: as §4

[13] = system: Bacillus subtilis (RCMB 010067); test: MIC by serial dilution method; assay type: cell-based
Experimental: as §4

[14] = system: Streptococcus pneumoniae (RCMB 010010); test: MIC by serial dilution method; assay type: cell-based
Experimental: as §4

[15] = system: Pseudomonas aeruginosa (RCMB 010043); test: MIC by serial dilution method; assay type: cell-based; settings: RCMB010043, Gm-ve, read-out: Minimum inhibitory concentration, MIC, P.A
Experimental: as §4

[16] = system: Escherichia coli (RCMB 010052); test: MIC by serial dilution method; assay type: cell-based
Experimental: as §4

[17] = system: Pseudomonas aeruginosa (RCMB 010043); test: Well diffusion assay (inhibition zone); assay type: cell-based; settings: RCMB010043, 5 mg/mL in DMSO, Gm-ve, read-out: Inhibition Zone (IZ) diameter, P.A
Experimental: as §3, §4

[18] = Homo sapiens, MCF7; read-out: IC50 MCF-7
[19] = Homo sapiens, HCT-116; read-out: IC50 HCT-116
[20] = RCMB05922, 5 mg/mL in DMSO, fungi, read-out: Inhibition Zone (IZ) diameter, S.R
[21] = RCMB02568, 5 mg/mL in DMSO, fungi, read-out: Inhibition Zone (IZ) diameter, A.F
[22] = RCMB010067, 5 mg/mL in DMSO, Gm+ve, read-out: Inhibition Zone (IZ) diameter, B.S
[23] = RCMB010010, 5 mg/mL in DMSO, Gm+ve, read-out: Inhibition Zone (IZ) diameter, S.P
[24] = RCMB010052, 5 mg/mL in DMSO, Gm-ve, read-out: Inhibition Zone (IZ) diameter, E.C
[25] = RCMB05922, fungi, read-out: Minimum inhibitory concentration, MIC, S.R
[26] = RCMB02568, fungi, read-out: Minimum inhibitory concentration, MIC, A.F
[27] = RCMB010067, Gm+ve, read-out: Minimum inhibitory concentration, MIC, B.S
[28] = RCMB010010, Gm+ve, read-out: Minimum inhibitory concentration, MIC, S.P
[29] = RCMB010052, Gm-ve, read-out: Minimum inhibitory concentration, MIC, E.C

Compound	IC50 [1, 18] [µg/mL]	IC50 [2, 19] [µg/mL]	IC50 [3] [µg/mL]	zone of inhibition at 5000 µg/mL [4, 20] [mm]	zone of inhibition at 5000 µg/mL [5, 21] [mm]	zone of inhibition at 5000 µg/mL ([6]; 5 mg/mL in DMSO, fungi) [mm]	zone of inhibition at 5000 µg/mL [7, 22] [mm]	zone of inhibition at 5000 µg/mL [8, 23] [mm]	zone of inhibition at 5000 µg/mL [9, 24] [mm]	MIC [10, 25] [µg/mL]	MIC [11, 26] [µg/mL]	MIC ([12]; fungi) [µg/mL]	MIC [13, 27] [µg/mL]	MIC [14, 28] [µg/mL]	MIC [15] [µg/mL]	MIC [16, 29] [µg/mL]	zone of inhibition at 5000 µg/mL [17] [mm]	melting point [°C]	also measured
Nc1cccc2c(O)cccc12 [compound 5, 5-amino-1-naphthol]	8.88 (≈ 55.8 µM)	11.5 (≈ 72.2 µM)	15.2 (≈ 95.5 µM)	14.5	18.3	19.5	18.9	16.3	17.2	–	–	–	–	–	–	–	–	–	IC50 (HCT-116, MCF-7, HEPG-2; HCT-116, MCF-7, HEPG-2 together): 9 to 15 µg/mL (≈ 56.5 to 94.2 µM)
N#CC1=C(N)Oc2cc(O)c(N=Nc3ccc(O)cc3)cc2C1c1ccccc1F (centres unmarked) [13j, 2-Amino-4-(2-fluoro-phenyl)-7-hydroxy-6-(4-hydroxy-phenylazo)-4H-chromene-3-carbonitrile]	44 (≈ 109 µM)	49.1 (≈ 122 µM)	47.2 (≈ 117 µM)	18.7	20.6	21.2	21.9	21	19.8	3.9 (≈ 9.69 µM)	0.98 (≈ 2.44 µM)	0.98 (≈ 2.44 µM)	0.49 (≈ 1.22 µM)	0.98 (≈ 2.44 µM)	31.2 (≈ 77.7 µM)	3.9 (≈ 9.69 µM)	16.3	260	–
N#CC1=C(N)Oc2cc(O)c(N=Nc3cccc(O)c3)cc2C1c1ccccc1F (centres unmarked) [13k, 2-Amino-4-(2-fluoro-phenyl)-7-hydroxy-6-(3-hydroxy-phenylazo)-4H-chromene-3-carbonitrile]	44.1 (≈ 110 µM)	71.4 (≈ 177 µM)	41.8 (≈ 104 µM)	17.1	19.4	21.3	24.3	22.6	18.6	3.9 (≈ 9.69 µM)	15.6 (≈ 38.8 µM)	1.95 (≈ 4.85 µM)	0.49 (≈ 1.22 µM)	0.98 (≈ 2.44 µM)	31.2 (≈ 77.7 µM)	15.6 (≈ 38.8 µM)	17.1	280	–
COc1ccc(C2C(C#N)=C(N)Oc3c(N)cc4ccccc4c32)cc1 (centres unmarked) [4d, 3,5-diamino-1-(4-methoxy-phenyl)-1H-benzo[f]chromene-2-carbonitrile]	4.68 (≈ 13.6 µM)	4.79 (≈ 13.9 µM)	2.64 (≈ 7.69 µM)	16.5	22.3	25.8	29.8	19.5	17.6	62.5 (≈ 182 µM)	0.98 (≈ 2.85 µM)	0.06 (≈ 0.175 µM)	0.007 (≈ 0.0204 µM)	7.81 (≈ 22.7 µM)	125 (≈ 364 µM)	15.6 (≈ 45.5 µM)	12.3	183	–
Nc1cc2ccccc2cc1O [compound 1, 3-amino-2-naphthol]	–	–	60.5 (≈ 380 µM)	–	–	–	–	–	–	–	–	–	–	–	–	–	–	–	MIC ([10]; RCMB05922, read-out: Minimum inhibitory concentration, MIC, S.R): 7.81 µg/mL (≈ 49.1 µM); MIC ([11]; RCMB02568, read-out: Minimum inhibitory concentration, MIC, A.F): 15.6 µg/mL (≈ 98.2 µM); MIC [12]: 62.5 µg/mL (≈ 393 µM); MIC ([13]; RCMB010067, read-out: Minimum inhibitory concentration, MIC, B.S): 31.2 µg/mL (≈ 196 µM); MIC ([14]; RCMB010010, read-out: Minimum inhibitory concentration, MIC, S.P): 15.6 µg/mL (≈ 98.1 µM); MIC ([16]; RCMB010052, read-out: Minimum inhibitory concentration, MIC, E.C): 7.8 µg/mL (≈ 49 µM); IC50 (HCT-116, MCF-7, HEPG-2): 60 to 230 µg/mL (≈ 377 to 1440 µM); IC50 ([1]; Homo sapiens, MCF7, read-out: IC50 MCF-7): 230 µg/mL (≈ 1440 µM); IC50 ([2]; Homo sapiens, HCT-116, read-out: IC50 HCT-116): 218 µg/mL (≈ 1370 µM); zone of inhibition at 5000 µg/mL ([4]; RCMB05922, read-out: Inhibition Zone (IZ) diameter, S.R): 14.3 mm; zone of inhibition at 5000 µg/mL ([5]; RCMB02568, read-out: Inhibition Zone (IZ) diameter, A.F): 16.6 mm; zone of inhibition at 5000 µg/mL [6]: 19.2 mm; zone of inhibition at 5000 µg/mL ([7]; RCMB010067, read-out: Inhibition Zone (IZ) diameter, B.S): 17.8 mm; zone of inhibition at 5000 µg/mL ([8]; RCMB010010, read-out: Inhibition Zone (IZ) diameter, S.P): 15.9 mm; zone of inhibition at 5000 µg/mL ([9]; RCMB010052, read-out: Inhibition Zone (IZ) diameter, E.C): 15.5 mm
